Experimental data published in ChEMBL document CHEMBL3826966, “A chromatography-free isolation of rohitukine from leaves of Dysoxylum binectariferum: Evaluation for in vitro cytotoxicity, Cdk inhibition and physicochemical properties” (Bioorg Med Chem Lett, 2016).

How the values were obtained:
Type in all cases: physicochemical
[1] = Partition coefficient, logP of the compound in water/PBS buffer at 25 degC by OECD guidelines based method; details: octanol/water
[2] = Ionization constant, pKa of the compound
[3] = Partition coefficient, logP of the compound in water/PBS buffer at pH 7.4 at 25 degC after 20 mins by shake flask method
[4] = Distribution coefficient, logD of the compound in water/PBS buffer at pH 7.4 at 25 degC after 20 mins by shake flask method
[5] = Ionization constant, pKa of the compound in buffer at pH 1 to 13 by uV spectrophotometry

logP [1]: 1.01
pKa [2]: 5.68
logD at 20 min [3]: 0.21
logD at 20 min [4]: 1.24
pKa [5]: 5.56
Compound: CN1CC[C@H](c2c(O)cc(O)c3c(=O)cc(-c4ccccc4Cl)oc23)[C@H](O)C1 [ALVOCIDIB]
